In patent US7745492B2, “Carboxamido opioid compounds” (Janssen Pharmaceutical, priority 2004, dated 2010):

Experiments:
[1] = target: T1, mu opioid receptor (Rattus norvegicus, UniProt P33535); assay: Rat brain mu opioid receptor binding assay ([3H]DAMGO); details: rat forebrain membranes, 25° C.
T1 construct: from tissue; host or cells: rat forebrain membrane (particulate) preparation
Experimental: (§1) Rat Brain Mu and Delta Opioid Receptor Binding Assay
(§2) Male, Wistar rats (150-250 g, VAF, Charles River, Kingston, N.Y.) were killed by cervical dislocation and their brains removed and placed immediately in ice cold Tris HCl buffer (50 mM, pH 7.4). The forebrains were separated from the remainder of the brain by a coronal transection, beginning dorsally at the colliculi and passing ventrally through the midbrain-pontine junction. After dissection, the forebrains were homogenized in Tris buffer in a Teflon®-glass homogenizer. The homogenate was diluted to a concentration of 1 g of forebrain tissue per 100 mL Tris buffer and centrifuged at 39,000×G for 10 min. The pellet was resuspended in the same volume of Tris buffer with several brief pulses from a Polytron homogenizer. This particulate preparation was used for the opioid receptor binding assays. Following incubation with the mu opioid selective peptide ligand [^3H]DAMGO or the delta opioid selective ligand [^3H]DPDPE at 25° C., the tube contents were filtered through Whatman GF/B filter sheets on a Brandel cell harvester. The tubes and filters were rinsed three times with 4 mL of 10 mM HEPES (pH 7.4) and the radioactivity associated with the filter circles determined using Formula 989 scintillation fluid (New England Nuclear, Boston, Mass.) in a scintillation counter.
(§3) The data were used to calculate a Ki value, using GraphPad Prism.

[2] = target: T2, delta opioid receptor (Rattus norvegicus, UniProt P33533); assay: Rat brain delta opioid receptor binding assay ([3H]DPDPE); details: rat forebrain membranes, 25° C.
T2 construct: from tissue; host or cells: rat forebrain membrane (particulate) preparation
Experimental: as §1
as §2, with “Following incubation with the mu opioid selective peptide ligand [^3H]DAMGO or the delta opioid selective ligand [^3H]DPDPE at 25° C., the tube contents were filtered through Whatman GF/B filter sheets on a Brandel cell harvester.” left out
as §3

[3] = target: T3, Human mu opioid (Homo sapiens, UniProt P35372); assay: [35S]GTPγS binding assay in human mu opioid-CHO cell membranes; format: biochemical
T3 construct: host or cells: CHO cell membranes
Experimental: [^35S]GTPγS Binding Assay in Human mu opioid-CHO Cell Membranes
Human mu-CHO cell membranes were purchased from Receptor Biology, Inc. (Baltimore, Md.). About 10 mg/ml of membrane protein was suspended in 10 mM TRIS-HCl, pH 7.2, 2 mM EDTA, 10% sucrose.
(§4) Membranes were maintained at 4-8° C. 1 ml of membranes was added into 15 ml cold assay buffer, containing 50 mM HEPES, pH 7.6, 5 mM MgCl2, 100 mM NaCl, 1 mM DTT and 1 mM EDTA. The membrane suspension was homogenized with a Polytron 2 times and centrifuged at 3000 rpm for 10 min. The supernatant was then centrifuged at 18,000 rpm for 20 min. The pellet was resuspended in 10 ml assay buffer with a Polytron.
The pellet membranes (20 μg/ml) were preincubated with Scintillation Proximity Assay beads (SPA, 10 mg/ml) at 25° C. for 45 min in the assay buffer. The SPA beads (5 mg/ml) coupled with membranes (10 μg/ml) were then incubated with 0.5 nM [^35S]GTPγS in the same HEPES buffer containing 50 μM GDP in total volume of 200 μl. A range of concentrations of receptor agonists were used to stimulate [^35S]GTPγS binding. The basal binding was tested in the absence of agonist and non-specific binding was tested in the presence of 10 μM unlabeled GTPγS. Radioactivity was quantified on a Packard TopCount.
Data were Calculated as Follows: % of basal=(stimulated−non-specific)*100/(basal−non specific) % Inhibition=(% Basal of 1 μM DAMGO−% Basal of compound)*100/(% Basal of 1 μM DAMGO−100)
(§5) EC50 values were calculated using the Prism program.

[4] = target: T4, Delta opioid (Mus musculus, UniProt P32300); assay: [35S]GTPγS binding assay in NG108-15 cell membrane; format: biochemical; details: NG108-15 cell membranes
T4 construct: NG108-15 cell membranes were purchased from Applied Cell Sciences (Rockville, Md.); host or cells: NG108-15 cell membranes
Experimental: [^35S]GTPγS Binding Assay in NG108-15 Cell Membrane
NG108-15 cell membranes were purchased from Applied Cell Sciences (Rockville, Md.). An 8 mg/mL portion of membrane protein was suspended in 10 mM TRIS-HCl, pH 7.2, 2 mM EDTA, 10% sucrose.
as §4, with “C. A” for “C.”, “1 mL portion” for “1 ml”, “into 10 mL” for “into 15 ml”, “mM Tris,” for “mM HEPES,”, “mM EGTA.” for “mM EDTA.”, “buffer using” for “buffer with”
The pellet membranes (75 μg/ml) were preincubated with SPA beads (10 mg/ml) at 25° C. for 45 min in the assay buffer. The SPA beads (5 mg/ml) coupled with membranes (37.5 μg/ml) were then incubated with 0.1 nM [^35S] GTPγS in the same Tris buffer containing 100 μM GDP in total volume of 200 μl. A range of concentrations of receptor agonists was used to stimulate [^35S] GTPγS binding. The basal binding was tested in the absence of agonist and non-specific binding was tested in the presence of 10 μM unlabeled GTPγS. The radioactivity was quantified on a Packard TopCount.
Calculations were performed as follows: % of Basal=(stimulated−non specific)*100/(basal−non specific).
as §5

[5] = tested on: Male Sprague Dawley rats; assay: Spinal nerve ligation (SNL) model of neuropathic pain, mechanical allodynia (Von Frey); format: in vivo; details: rat
Experimental: Spinal Nerve Ligation (SNL) Model of Neuropathic Pain
Male Sprague Dawley rats weighing 145 to 165 g (approximately 6 weeks of age) were obtained from Harlan (Indianapolis, Ind.). Food and water were provided ad lib and a 12 h light and 12 h dark cycle were maintained. Animals were group housed under specific pathogen-free, barrier maintained environment and were allowed to acclimate for no less than 1 week. Following surgery, animals were housed individually in solid bottom polycarbonate cages with automatic watering devices at 22° C. and a relative humidity of 60%. All animals received Harland Tekland Diet # 8604.
Anesthesia was induced using isoflurane (IsoVet™) inhalant in an induction chamber (3-5% in 2 L/min of O2). Once recumbent, the animal was removed and placed into a nose cone which delivered inhalant isoflurane (0.5-2.5% at 2 L/min Of O2). The dorsal pelvic area was shaved and scrubbed aseptically with chlorhexidine scrub, 70% alcohol, and a 5% chlorhexidine solution. The animal was held in ventral recumbency on a heating pad, and the surgical procedure described by Kim and Chung (1992) was performed. The left paraspinal muscles were separated from the spinous processes at the level of Lumbar 4 to Sacral 2 (L4-S2). Once the musculature was retracted, the L6 transverse process was removed using a small rongeur. L4 and L5 spinal nerves could then be visualized. L5 was then isolated and ligated using 6-0 silk suture material. Warm saline and a dose of long-acting antibiotic was administered immediately post-op before recovery form anesthesia.
At least one week following surgery, animals were individually placed in a Lucite testing chamber with a wire mesh bottom. Mechanical (tactile) allodynia was measured by recording the pressure at which the affected paw was withdrawn from graded stimuli (Von Frey hairs ranging from 4.0 to 148.1 mN equivalent to 0.25 to 15 g of pressure) applied to the plantar surface of the paw (between the footpads) according to the procedure of Chaplan et. al (1994) in order to calculate paw withdrawal threshold (PWT). Normal rats can withstand at least 15 g of pressure without responding. SNL rats can respond to as little as 0.25 g of pressure. Rats were included in this study only if their PWT was below 4.0 g.
Animals were used for compound testing between 2 weeks and 8 weeks post-operatively. Animals were always pre-tested for baseline withdrawal threshold on the day of testing. Following a 16 h fast, PWT was evaluated at 30 min, 1 h, 2 h, and 4 h post-dosing. Dose-response studies were conducted at the time of peak effect. Studies were conducted in a blinded manner.
Data were normalized and results were presented as % MPE (maximum possible effect) of the drug.

[6] = tested on: male Sprague-Dawley rats; assay: Rat CFA radiant heat model of inflammatory pain; format: in vivo; details: dosed orally 24 h after intraplantar CFA
Experimental: Rat CFA Radiant Heat Model of Inflammatory Pain
Intraplantar injection of Complete Freund's Adjuvant (CFA) in rodents results in a strong, long-lasting inflammatory reaction, characterized by a chronic and pronounced hyperalgesia to both thermal and mechanical stimuli. These effects peak between 24-72 h following injection, and can last for several days to a few weeks. To assess the ability of compounds to reverse thermal hyperalgesia, male Sprague-Dawley rats (200-350 g) were given an intraplantar injection of CFA (1:1 CFA:saline, 100 μL) into their left hindpaw. Following a 24-h incubation period, response latencies on the Radiant Heat Paw Stimulator (RH) were obtained and compared to baseline (pre-CFA) latencies. The RH device automatically registered lifting of the paw from the surface of the glass. […] Following the post CFA latency assessment, rats were dosed orally (2.5 mL/kg) with test compound or vehicle (hydroxypropylmethylcellulose, HPMC). Percent reversal of hyperalgesia was calculated for each animal as (Treatment Response−postCFA Response)/(preCFA Response−postCFA Response)×100. Therefore, a return to normal pre-CFA thresholds was defined as 100% efficacy, whereas no change from post-CFA thresholds was 0% efficacy. Average % reversal of hyperalgesia was then calculated for each treatment group (n=6-8 rats/group). […]

[7] = tested on: spinal nerve ligated rats; assay: Investigation of tolerance development to antiallodynic effect; format: in vivo, rat; details: dosing for five days, evaluated days one and five
Experimental: Investigation of Tolerance Development
The development of tolerance to the analgesic effect of mu opioid compounds is well known. The development of tolerance to the antiallodynic effect of the Compound 3 was investigated by administering the compound to spinal nerve ligated rats for five days. The antiallodynic effect of the compound was evaluated on days one and five.

T1 sequence (P33535 whole entry): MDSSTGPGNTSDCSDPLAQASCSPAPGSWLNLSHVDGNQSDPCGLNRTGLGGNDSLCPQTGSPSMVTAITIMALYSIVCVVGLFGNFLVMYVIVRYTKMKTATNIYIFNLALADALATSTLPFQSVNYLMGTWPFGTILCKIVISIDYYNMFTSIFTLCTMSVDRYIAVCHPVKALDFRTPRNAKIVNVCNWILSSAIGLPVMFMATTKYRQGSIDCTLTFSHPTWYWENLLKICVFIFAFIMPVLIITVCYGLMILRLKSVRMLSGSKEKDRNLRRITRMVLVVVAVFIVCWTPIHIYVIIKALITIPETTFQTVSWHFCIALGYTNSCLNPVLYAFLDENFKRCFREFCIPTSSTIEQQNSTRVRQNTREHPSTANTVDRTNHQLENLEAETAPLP
T2 sequence (P33533 whole entry): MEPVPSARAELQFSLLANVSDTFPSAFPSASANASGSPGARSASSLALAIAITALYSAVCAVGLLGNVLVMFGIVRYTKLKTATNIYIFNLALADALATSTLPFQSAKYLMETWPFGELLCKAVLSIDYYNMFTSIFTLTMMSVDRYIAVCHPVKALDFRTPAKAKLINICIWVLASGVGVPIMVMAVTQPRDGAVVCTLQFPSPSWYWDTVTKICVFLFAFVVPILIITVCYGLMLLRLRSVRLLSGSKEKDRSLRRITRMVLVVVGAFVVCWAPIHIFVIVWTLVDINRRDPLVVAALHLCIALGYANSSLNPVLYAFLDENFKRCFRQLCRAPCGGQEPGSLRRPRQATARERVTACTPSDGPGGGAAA
T3 sequence (P35372 whole entry): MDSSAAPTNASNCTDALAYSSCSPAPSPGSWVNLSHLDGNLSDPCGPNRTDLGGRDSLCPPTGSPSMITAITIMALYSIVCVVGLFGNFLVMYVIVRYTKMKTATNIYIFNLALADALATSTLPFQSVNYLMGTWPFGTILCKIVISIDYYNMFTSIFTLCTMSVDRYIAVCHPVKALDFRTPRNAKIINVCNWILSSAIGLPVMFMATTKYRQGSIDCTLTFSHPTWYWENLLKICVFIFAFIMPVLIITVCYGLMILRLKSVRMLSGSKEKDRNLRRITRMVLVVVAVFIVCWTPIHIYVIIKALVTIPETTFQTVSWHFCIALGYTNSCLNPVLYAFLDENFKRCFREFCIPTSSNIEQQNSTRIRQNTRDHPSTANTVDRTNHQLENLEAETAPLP
T4 sequence (P32300 whole entry): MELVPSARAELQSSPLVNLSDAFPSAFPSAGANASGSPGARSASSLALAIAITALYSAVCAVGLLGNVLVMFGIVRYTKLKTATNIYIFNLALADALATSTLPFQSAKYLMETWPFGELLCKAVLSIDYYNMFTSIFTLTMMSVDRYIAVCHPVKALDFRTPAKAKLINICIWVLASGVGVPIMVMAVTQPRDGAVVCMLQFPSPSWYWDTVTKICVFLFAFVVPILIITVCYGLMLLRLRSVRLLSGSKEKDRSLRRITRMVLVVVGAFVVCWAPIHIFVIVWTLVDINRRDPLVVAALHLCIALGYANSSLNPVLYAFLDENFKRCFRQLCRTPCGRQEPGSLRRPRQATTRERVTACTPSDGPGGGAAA

Row | Structure (SMILES) | Ki [1] [µM] | Ki [2] [µM] | further results
1 | CN(C)C[C@@H]1CCCC[C@]1(O)c1cccc(C(N)=O)c1 (racemic) [Cpd 1, 3-[(1-RS, 2-SR)-2-[(Dimethylamino)methyl]-1-hydroxycyclohexyl]-benzamide] | 1.39 | 9.87 | –
2 | CN(C)C[C@H]1CCCC[C@]1(O)c1cccc(C(N)=O)c1 (racemic) [Cpd 2, 3-[(1-RS, 2-RS)-[(2-Dimethylamino)methyl]-1-hydroxycyclohexyl]-benzamide] | 0.0294 | 2.47 | Mu opioid GTPγS (result in words) [3]: Agonist; EC50 [4]: 5.63 µM; MPE in spinal nerve ligation model ([5]; 3 mg/kg, i.v.): 87%; MPE in spinal nerve ligation model ([5]; 30 mg/kg, p.o.): 88%
3 | CCN(CC)C(=O)c1cccc([C@@]2(O)CCCC[C@@H]2CN(C)C)c1 (racemic) [Cpd 5, 3-[(1-RS, 2-RS)-2-[(dimethylamino)methyl]-1-hydroxycyclohexyl]-N,N-diethyl-benzamide] | > 10 | > 10 | –
4 | CN(C)C[C@H]1CCCC[C@]1(O)c1cccc(C(=O)NC2CC2)c1 (racemic) [Cpd 6, N-Cyclopropyl-3-[(1-RS, 2-RS)-2-[(dimethylamino)methyl]-1-hydroxycyclohexyl]-benzamide] | 5.19 | > 10 | –
5 | CNC(=O)c1cccc([C@@]2(O)CCCC[C@@H]2CN(C)C)c1 (racemic) [Cpd 7, 3-[(1-RS, 2-RS)-2-[(Dimethylamino)methyl]-1-hydroxycyclohexyl]-N-methylbenzamide] | 2.12 | > 10 | –
6 | CN(C)C[C@@H]1CCCC[C@@]1(O)c1cccc(C(N)=O)c1 (single isomer, unassigned) [Cpd 4] | 0.828 | > 10 | EC50 [3]: 4.82 µM; Mu opioid GTPγS relative efficacy [3]: 41%; Antihyperalgesic effect (reversal of thermal hyperalgesia) [6]: antihyperalgesic; MPE in spinal nerve ligation model ([5]; 30 mg/kg, p.o.): 39%; MPE in spinal nerve ligation model ([5]; 100 mg/kg, p.o.): 95%
7 | CN1CC[C@]23c4c5ccc(O)c4O[C@H]2[C@@H](O)C=C[C@H]3[C@H]1C5 [morphine, reference compound] | – | – | Development of tolerance to the antiallodynic effect [7]: little or no antiallodynic effect remaining after five days of dosing
